Target: T1, SIRT1 (Homo sapiens, UniProt Q96EB6)
T1 construct: His-tag (N); made in house; host or cells: E. coli BL21(DE3), T7-promoter vector
T1 sequence (Q96EB6 1-747): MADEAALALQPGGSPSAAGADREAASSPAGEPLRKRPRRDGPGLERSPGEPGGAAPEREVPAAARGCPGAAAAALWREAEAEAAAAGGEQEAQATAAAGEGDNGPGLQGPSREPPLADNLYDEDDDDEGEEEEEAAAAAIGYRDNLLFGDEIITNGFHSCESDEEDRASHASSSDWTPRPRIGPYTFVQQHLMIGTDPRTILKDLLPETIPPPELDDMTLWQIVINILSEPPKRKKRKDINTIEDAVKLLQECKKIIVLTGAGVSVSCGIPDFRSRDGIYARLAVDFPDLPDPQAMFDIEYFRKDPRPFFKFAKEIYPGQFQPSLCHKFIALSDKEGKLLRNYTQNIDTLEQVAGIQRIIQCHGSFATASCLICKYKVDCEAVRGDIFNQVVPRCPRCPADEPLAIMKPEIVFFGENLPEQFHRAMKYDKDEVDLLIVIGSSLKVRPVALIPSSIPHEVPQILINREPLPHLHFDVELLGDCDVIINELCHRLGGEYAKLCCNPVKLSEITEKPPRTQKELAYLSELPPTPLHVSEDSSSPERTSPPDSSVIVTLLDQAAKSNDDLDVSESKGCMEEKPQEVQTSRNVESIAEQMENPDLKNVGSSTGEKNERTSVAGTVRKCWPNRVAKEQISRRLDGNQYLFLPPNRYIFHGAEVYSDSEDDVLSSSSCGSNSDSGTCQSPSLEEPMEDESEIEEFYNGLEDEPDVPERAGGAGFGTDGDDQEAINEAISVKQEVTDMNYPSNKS
Assay: Mass spectrometry based assay for modulators of SIRT1 activity (deacetylation of p53-based acetylated peptide)
Format: biochemical
Details: for EC1.5: concentration of test compound that results in 150% activation of SIRT1, 0.5 μM peptide substrate, 120 μM βNAD+, 10 nM SIRT1, 25 min, 25° C.; for Emax: percent maximum fold activation of SIRT1
Excerpt: A mass spectrometry based assay was used to identify modulators of SIRT1 activity. The mass spectrometry based assay utilizes a peptide having 20 amino acid residues as follows: Ac-EE-K(biotin)-GQSTSSHSK(Ac)NleSTEG-K(5TMRi)-EE-NH2 (SEQ ID NO: 1) wherein K(Ac) is an acetylated lysine residue and Nle is a norleucine. The peptide is labeled with the fluorophore 5TMR (excitation 540 nm/emission 580 nm) at the C-terminus. The sequence of the peptide substrate is based on p53 with several modifications. In addition, the methionine residue naturally present in the sequence was replaced with the norleucine because the methionine may be susceptible to oxidation during synthesis and purification.
The mass spectrometry assay is conducted as follows: 0.5 μM peptide substrate and 120 μM βNAD+ is incubated with 10 nM SIRT1 for 25 minutes at 25° C. in a reaction buffer (50 mM Tris-acetate pH 8, 137 mM NaCl, 2.7 mM KCl, 1 mM MgCl2, 5 mM DTT, 0.05% BSA). Test compounds may be added to the reaction as described above. The SirT1 gene is cloned into a T7-promoter containing vector and transformed into BL21(DE3). After the 25 minute incubation with SIRT1, 10 μL of 10% formic acid is added to stop the reaction. Reactions are sealed and frozen for later mass spec analysis. Determination of the mass of the substrate peptide allows for precise determination of the degree of acetylation (i.e. starting material) as compared to deacetylated peptide (product).
A control for inhibition of sirtuin activity is conducted by adding 1 μL of 500 mM nicotinamide as a negative control at the start of the reaction (e.g., permits determination of maximum sirtuin inhibition). A control for activation of sirtuin activity is conducted using 10 nM of sirtuin protein, with 1 μL of DMSO in place of compound, to determinine the amount of deacetylation of the substrate at a given timepoint within the linear range of the assay. This timepoint is the same as that used for test compounds and, within the linear range, the endpoint represents a change in velocity.
For the above assay, SIRT1 protein was expressed and purified as follows. The SirT1 gene was cloned into a T7-promoter containing vector and transformed into BL21(DE3). The protein was expressed by induction with 1 mM IPTG as an N-terminal His-tag fusion protein at 18° C. overnight and harvested at 30,000×g. Cells were lysed with lysozyme in lysis buffer (50 mM Tris-HCl, 2 mM Tris[2-carboxyethyl]phosphine (TCEP), 10 μM ZnCl2, 200 mM NaCl) and further treated with sonication for 10 min for complete lysis. The protein was purified over a Ni-NTA column (Amersham) and fractions containing pure protein were pooled, concentrated and run over a sizing column (Sephadex S200 26/60 global). The peak containing soluble protein was collected and run on an Ion-exchange column (MonoQ). Gradient elution (200 mM-500 mM NaCl) yielded pure protein. This protein was concentrated and dialyzed against dialysis buffer (20 mM Tris-HCl, 2 mM TCEP) overnight. The protein was aliquoted and frozen at −80° C. until further use.
Sirtuin modulating compounds that activated SIRT1 were identified using the assay described above and are shown below in Table 1. The EC1.5 values represent the concentration of test compounds that result in 150% activation of SIRT1. The EC1.5 values for the activating compounds are represented by A (EC1.5<1.0 uM), B (EC1.5 1-25 uM), C (EC1.5>25 uM). The percent maximum fold activation is represented by A (Fold activation >200%) or B (Fold Activation <200%). “NT” indicates the compound was not tested in a particular assay.

Row | EC1.5 | Emax [%] | Structure (SMILES)
1 | C (EC1.5>25 uM) | < 200 | O=C(Nc1nccs1)c1nccn2cc(-c3cccc(C(F)(F)F)c3)nc12 [Compound 138, N-(thiazol-2-yl)-2-(3-(trifluoromethyl)phenyl)imidazo[1,2-a]pyrazine-8-carboxamide]
2 | C (EC1.5>25 uM) | < 200 | O=C(Nc1nccs1)c1nccn2cc(-c3cccc(OC(F)(F)F)c3)nc12 [Compound 142]
3 | C (EC1.5>25 uM) | < 200 | O=C(Nc1ccccn1)c1nccn2cc(-c3cccc(OC(F)(F)F)c3)nc12 [Compound 143]
4 | C (EC1.5>25 uM) | < 200 | O=C(Nc1nccs1)c1cccn2cc(-c3ccccc3C(F)(F)F)nc12 [Compound 148]
5 | C (EC1.5>25 uM) | < 200 | O=C(Nc1nccs1)c1cccn2cc(-c3ccc(C(F)(F)F)cc3)nc12 [Compound 150]
6 | C (EC1.5>25 uM) | < 200 | O=C(Nc1ccccn1)c1cccn2cc(-c3ccc(C(F)(F)F)cc3)nc12 [Compound 151]
7 | C (EC1.5>25 uM) | < 200 | O=C(Nc1nccs1)c1cccn2cc(-c3ccccc3F)nc12 [Compound 152]
8 | C (EC1.5>25 uM) | < 200 | O=C(Nc1nccs1)c1cccn2cc(-c3cccc(F)c3)nc12 [Compound 154]
9 | C (EC1.5>25 uM) | < 200 | O=C(Nc1ccccn1)c1cccn2cc(-c3cccc(F)c3)nc12 [Compound 155]
10 | C (EC1.5>25 uM) | < 200 | O=C(Nc1nccs1)c1cccn2cc(-c3ccc(F)cc3)nc12 [Compound 156]
11 | A (EC1.5<1.0 uM) | > 200 | O=C(Nc1cccc(CN2CCOCC2)n1)c1nccn2cc(-c3cccc(OC(F)(F)F)c3)nc12 [Compound 158]
12 | A (EC1.5<1.0 uM) | > 200 | O=C(Nc1cccc(CN2CCOCC2)n1)c1cccn2cc(-c3cccc(C(F)(F)F)c3)nc12 [Compound 160]
13 | C (EC1.5>25 uM) | < 200 | Cc1ccc(-c2cn3ccnc(C(=O)Nc4nccs4)c3n2)cn1 [Compound 162]
14 | B (EC1.5 1-25 uM) | < 200 | Cc1ccc(-c2cn3ccnc(C(=O)Nc4ccccn4)c3n2)cn1 [Compound 163]
15 | C (EC1.5>25 uM) | < 200 | O=C(Nc1nccs1)c1nccn2cc(-c3ccc(N4CCCC4)cc3)nc12 [Compound 168]
16 | A (EC1.5<1.0 uM) | > 200 | O=C(Nc1nccs1)c1nccn2cc(-c3ccccc3C(F)(F)F)nc12 [Compound 171]
17 | B (EC1.5 1-25 uM) | > 200 | O=C(Nc1ccccn1)c1nccn2cc(-c3ccccc3C(F)(F)F)nc12 [Compound 172]
18 | A (EC1.5<1.0 uM) | > 200 | Cc1cnc(NC(=O)c2nccn3cc(-c4ccccc4C(F)(F)F)nc23)s1 [Compound 173]
19 | B (EC1.5 1-25 uM) | > 200 | O=C(Nc1cccnn1)c1nccn2cc(-c3ccccc3C(F)(F)F)nc12 [Compound 174]
20 | B (EC1.5 1-25 uM) | > 200 | O=C(Nc1ccncn1)c1nccn2cc(-c3ccccc3C(F)(F)F)nc12 [Compound 175]
21 | B (EC1.5 1-25 uM) | > 200 | O=C(Nc1cnccn1)c1nccn2cc(-c3ccccc3C(F)(F)F)nc12 [Compound 176]

More lines, now with the values behind:

Row | Structure (SMILES) | EC1.5 | Emax [%]
22 | Cc1ccc(NC(=O)c2cccn3cc(-c4ccc(F)cc4C(F)(F)F)nc23)cc1 [Compound 141] | A (EC1.5<1.0 uM) | > 200
23 | O=C(Nc1ncc(CN2CCCC2)s1)c1cccn2cc(-c3ccc(F)cc3C(F)(F)F)nc12 [Compound 146] | B (EC1.5 1-25 uM) | > 200
24 | O=C(Nc1ccc(CN2CCOCC2)cc1)c1cccn2cc(-c3ccc(F)cc3C(F)(F)F)nc12 [Compound 147] | B (EC1.5 1-25 uM) | > 200
25 | O=C(Nc1ccccn1)c1cccn2cc(-c3ccccc3C(F)(F)F)nc12 [Compound 149] | B (EC1.5 1-25 uM) | > 200
26 | O=C(Nc1ccccn1)c1cccn2cc(-c3ccccc3F)nc12 [Compound 153] | C (EC1.5>25 uM) | < 200
27 | O=C(Nc1ccccn1)c1cccn2cc(-c3ccc(F)cc3)nc12 [Compound 157] | B (EC1.5 1-25 uM) | < 200
28 | O=C(Nc1cccc(CN2CCOCC2)n1)c1cccn2cc(-c3cccc(OC(F)(F)F)c3)nc12 [Compound 161] | A (EC1.5<1.0 uM) | > 200
29 | Cc1ccc(-c2cn3ccnc(C(=O)Nc4nc(CN5CCOCC5)cs4)c3n2)cn1 [Compound 164] | B (EC1.5 1-25 uM) | < 200
30 | Cc1ccc(-c2cn3ccnc(C(=O)Nc4cccc(CN5CCOCC5)n4)c3n2)cn1 [Compound 165] | B (EC1.5 1-25 uM) | < 200
31 | O=C(Nc1nccs1)c1cccn2cc(-c3ccc(N4CCCC4)cc3)nc12 [Compound 166] | C (EC1.5>25 uM) | < 200
32 | O=C(Nc1ccccn1)c1cccn2cc(-c3ccc(N4CCCC4)cc3)nc12 [Compound 167] | C (EC1.5>25 uM) | < 200
33 | O=C(Nc1ccccn1)c1nccn2cc(-c3ccc(N4CCCC4)cc3)nc12 [Compound 169] | C (EC1.5>25 uM) | < 200
34 | O=C(Nc1ccc(CCN2CCOCC2)cc1)c1cccn2cc(-c3ccc(F)cc3C(F)(F)F)nc12 [Compound 170] | A (EC1.5<1.0 uM) | > 200
35 | O=C(Nc1nc(CN2CCOCC2)cs1)c1cccn2nc(-c3cccc(C(F)(F)F)c3)nc12 [Compound 177, N-(4-(morpholinomethyl)thiazol-2-yl)-2-(3-(trifluoromethyl)phenyl)-[1,2,4]triazolo[1,5-a]pyridine-8-carboxamide] | B (EC1.5 1-25 uM) | > 200
36 | O=C(Nc1cccc(CN2CCOCC2)n1)c1cccn2nc(-c3cccc(C(F)(F)F)c3)nc12 [Compound 178] | B (EC1.5 1-25 uM) | > 200
37 | O=C(Nc1nc(CN2CCOCC2)cs1)c1cccn2nc(-c3cccc(OC(F)(F)F)c3)nc12 [Compound 179] | B (EC1.5 1-25 uM) | > 200
38 | O=C(Nc1cccc(CN2CCOCC2)n1)c1cccn2nc(-c3cccc(OC(F)(F)F)c3)nc12 [Compound 180] | B (EC1.5 1-25 uM) | > 200
39 | O=C(Nc1nccs1)c1cccn2nc(-c3cccc(N4CCOCC4)c3)nc12 [Compound 181] | B (EC1.5 1-25 uM) | < 200
